The structures appear in SMILES notation.

The test deals with T1, prostanoide receptor subtype (mouse EP3a) (Mus musculus, UniProt P30557).
T1 construct: expressed in transfected cells
T1 sequence (P30557 1-365): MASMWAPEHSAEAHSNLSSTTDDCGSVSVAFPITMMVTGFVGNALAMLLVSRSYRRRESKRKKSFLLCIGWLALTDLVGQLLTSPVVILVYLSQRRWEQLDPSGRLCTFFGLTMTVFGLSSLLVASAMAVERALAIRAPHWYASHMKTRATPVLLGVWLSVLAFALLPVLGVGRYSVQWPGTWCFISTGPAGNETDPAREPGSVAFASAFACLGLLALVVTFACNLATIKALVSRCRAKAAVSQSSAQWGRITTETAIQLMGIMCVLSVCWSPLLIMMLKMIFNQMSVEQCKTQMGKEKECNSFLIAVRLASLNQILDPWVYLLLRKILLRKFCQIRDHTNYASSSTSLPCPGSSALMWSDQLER
In words: Binding assay using expression cell of prostanoide receptor subtype ([3H]PGE2 competition, membrane fraction). To be noted: mouse EP3a membrane fraction (0.5 mg/ml); [3H]-PGE2 2.5 nM; pH 6.0; 1 hour at room temperature; Ki=IC50/(1+([c]/Kd)); read-out: Ki (dissociation constant). The protocol: (i) Binding assay using expression cell of prostanoide receptor subtype
The preparation of membrane fraction was carried out according to the method of Sugimoto et al [J. Biol. Chem. 267, 6463-6466(1992)], using prostanoide receptor subtype (mouse EP3a).
The standard assay mixture containing a membrane fraction (0.5 mg/ml), [^3 H]PGE2 in a final volume of […] was incubated for 1 hour at room temperature. The reaction was terminated by the addition of 3 ml of ice-cooled buffer. The mixture was rapidly filtered through a Whatman GF/B glass filter. The radioactivity associated with the filter was measured in ACS II (Amarsham) by liquid scintillation counting.
Kd and Bmax values were determined from Scatchard plots [Ann. N.Y. Acad. Sci., 51,660(1949)]. Non-specific binding was calculated as the bond in the presence of an excess (2.5 mM) of unlabeled PGE2. In the experiment for competition of specific [^3 H]-PGE2 binding by the compounds of the present invention, [^3 H]-PGE2 was added at a concentration of 2.5 nM and the compounds of the present invention were at a concentration of 1 mM.
The following buffer was used in all reactions. Buffer: 10 mM potassium phosphate (pH 6.0), 1 mM EDTA, 10 mM MgCl2, 0.1 M NaCl
The dissociation constant (Ki) of each compound was calculated by the following equation.
Consider `O=C(O)COc1cccc2c1CCC=C2CCNS(=O)(=O)/C=C/c1ccccc1` [Example 3(aa), 5-[2-[(2-phenylvinyl)sulfonylamino]ethyl]-7,8-dihydronaphthyloxyacetic acid], for which the Ki was 7.9 nM.
Regarding `O=C(O)COc1cccc2c(NS(=O)(=O)CCc3ccccc3)cccc12` [Example 3(v), 5-[(2-phenylethyl)sulfonylamino]naphthyloxyacetic acid], the Ki is 17 nM.
`O=C(O)COc1cccc2cc(CCNS(=O)(=O)/C=C/c3ccccc3)ccc12` [Example 3(h), 6-[2-[(2-phenylvinyl)sulfonylamino]ethyl]naphthyloxyacetic acid]: the Ki turned out to be 37 nM.
`O=C(O)COc1cccc2c(CCNS(=O)(=O)CCc3ccccc3)cccc12` [Example 3(w), 5-[2-[(2-phenylethyl)sulfonylamino]ethyl]naphthyloxyacetic acid]: the inhibitory constant (Ki) is 28 nM.
In the case of `O=C(O)COc1cccc2c1CCCC2NS(=O)(=O)C=C(c1ccccc1)c1ccccc1` (stereo not shown) [Example 3(p), 5-[(2,2-diphenylvinyl)sulfonylamino]-5,6,7,8-tetrahydronaphthyloxyacetic acid], the Ki was determined as 36 nM.
With `O=C(O)COc1cccc2c1CCCC2NS(=O)(=O)c1ccc2ccccc2c1` (stereo not shown) [Example 3(q), 5-(naphth-2-yl-sulfonylamino)-5,6,7,8-tetrahydronaphthyloxyacetic acid], the Ki came out at 320 nM.
The figure for `O=C(O)COc1cccc2c3c(ccc12)CCC(NS(=O)(=O)/C=C/c1ccccc1)C3` (stereo not shown) [Example 3(ff), 6-[(2-phenylvinyl)sulfonylamino]-5,6,7,8-tetrahydrophenanthrene-1-yl-oxyacetic acid] is 2.5 nM.
In the case of `O=C(O)COc1cccc2c(NS(=O)(=O)C=C(c3ccccc3)c3ccccc3)cccc12` [Example 3(i), 5-[(2,2-diphenylvinyl)sulfonylamino]naphthyloxyacetic acid], the inhibition constant Ki turned out to be 37 nM.
The result for `O=C(O)COc1cccc2c(CCS(=O)(=O)NCC(c3ccccc3)c3ccccc3)cccc12` [Example 6(f)] reads 7.5 nM; that for `O=C(O)COc1cccc2c(CCNS(=O)(=O)/C=C/c3ccccc3)cccc12` [Example 3(g)], 7 nM.

As usually defined, the Ki is a measure of affinity in units of concentration, obtained from inhibition or displacement.

(Values after US5624959A, “Naphthyloxyacetic acid” (Ono Pharmaceutical Co., Ltd., priority 1993, dated 1997).)
